# Results as given in patent US4039540A, “3-Substituted quinoxaline-2-carboxamide-1,4-dioxides” (Pfizer Inc., priority 1975, dated 1977).
# Where two headings read alike, the source gives them in different places.
# Columns and labels:
# [1] = test system: E. coli; assay: in vitro antibacterial activity, two-fold serial dilution in Brain-Heart Infusion Broth (MIC); assay type: cell-based; conditions: Escherichia coli, overnight, anaerobic
# Method: (§1) The broth is inoculated with bacteria and with the test quinoxaline-1,4-dioxide and then it is incubated overnight under anerobic conditions. On the next day, the test is read visually. The minimum inhibitory concentration (MIC) of test compound is the lowest concentration which prevents turbidity, i.e., which prevents growth of the microorganism.
# (§2) In vitro and in vivo activity of representative compounds of this invention, determined as aforesaid, are reported in the following tabulation for compounds of the formula: [drawing 12]
# [2] = test system: Strep. pyrogens; assay: as above; assay type: cell-based; conditions: overnight, anaerobic
# Method: as §1, §2
# [3] = test system: pathogenic bacteria; assay: in vivo activity in infected mice, last four lines of the table; conditions: bacterium and dose in drawing 28, not readable; for IN VIVO number of survivors among the treated animals (head drawing 28): subcutaneous
# Method: (§3) In determining the in vivo activity of the quinoxaline-1,4-dioxides of this invention, the test compound is administered to mice which have been infected by […] injection of a lethal inoculum of pathogenic bacteria. The test compound is administered using a multiple dosing regimen and using either the oral (PO) or the subcutaneous (SC) route. The inoculum of bacteria varies from about 1 to about 10 times the amount needed to kill 100% of the mice under the conditions of the test. At the end of the test, the activity of the compound is assessed by counting the number of survivors among the treated animals.
# as §2
# [4] = test system: Strep. pyogenes; assay: in vivo activity in mice infected with a lethal inoculum of Strep. pyogenes; conditions: Streptococcus pyogenes, multiple dosing
# Method: as §3, §2
# [5] = test system: E. coli; assay: in vivo activity in mice infected with a lethal inoculum of E. coli; conditions: Escherichia coli, sc, subcutaneous, multiple dosing, read-out: IN VIVO E. coli, number of survivors among the treated animals
# Method: as §3, §2
# [6] = oral, read-out: IN VIVO Strep. pyogenes, number of survivors among the treated animals, PO (data in parenthesis)
# [7] = sc, subcutaneous, read-out: IN VIVO Strep. pyogenes, number of survivors among the treated animals
Compound,MIC [1],MIC [2],"IN VIVO number of survivors among the treated animals, PO (data in parenthesis; head drawing 28) [3]",IN VIVO number of survivors among the treated animals (head drawing 28) [3],"responders at 50 mg/kg [4, 6]","responders at 50 mg/kg [4, 7]",responders at 25 mg/kg [5]
CNC(=O)c1c(CS(=O)(=O)CCCCN2CCCCC2)[n+]([O-])c2ccccc2[n+]1[O-] [NHCH3; drawing 29; H],12.5 µg/mL,6.25 µg/mL,7/10,10/10,,,
NC(=O)c1c(CS(=O)(=O)CCCCN2CCCCC2)[n+]([O-])c2ccccc2[n+]1[O-] [NH2; drawing 31; H],25 µg/mL,12.5 µg/mL,0/10,9/10,,,
O=C(NCC(O)CO)c1c(CS(=O)(=O)CCO)[n+]([O-])c2ccccc2[n+]1[O-] (centres unmarked) [NHCH2 CHOHCH2 OH; SO2 CH2 CH2 OH; H],200 µg/mL,6.25 µg/mL,,,70%,40%,0%
O=C(NCCCO)c1c(CS(=O)(=O)CCO)[n+]([O-])c2ccccc2[n+]1[O-] [NHCH2 CH2 CH2 OH; SO2 CH2 CH2 OH; H],100 µg/mL,12.5 µg/mL,,,50%,40%,0%
COCCNC(=O)c1c(CS(=O)(=O)CCCN2CCCCC2)[n+]([O-])c2ccccc2[n+]1[O-] [NHCH2 CH2 OCH3; drawing 25; H],50 µg/mL,1.56 µg/mL,,,100%,100%,20%
CN(C)C(=O)c1c(CS(=O)(=O)CCCN2CCCCC2)[n+]([O-])c2ccccc2[n+]1[O-] [N(CH3)2; drawing 27; H],3.12 µg/mL,3.12 µg/mL,,,100%,100%,90%
CN(C)C(=O)c1c(CS(=O)(=O)CCCN2CCOCC2)[n+]([O-])c2ccccc2[n+]1[O-] [N(CH3)2; drawing 19; H],25 µg/mL,25 µg/mL,,,10%,0%,20%
CCNC(=O)c1c(CS(=O)(=O)CCCCN2CCCCC2)[n+]([O-])c2ccccc2[n+]1[O-] [NHCH2 CH3; drawing 32; H],12.5 µg/mL,6.25 µg/mL,7/10,4/10,,,
CCSCCNC(=O)c1c(CS(=O)(=O)CCO)[n+]([O-])c2ccccc2[n+]1[O-] [NHCH2 CH2 SCH2 CH3; SO2 CH2 CH2 OH; H],100 µg/mL,1.56 µg/mL,,,0%,10%,50%
CCNC(=O)c1c(CSCCCOC(C)=O)[n+]([O-])c2ccccc2[n+]1[O-] [NHCH2 CH3; SCH2 CH2 CH2 OAc; H],25 µg/mL,3.12 µg/mL,,,20%,10%,0%
CNC(=O)c1c(CSCCCO)[n+]([O-])c2ccccc2[n+]1[O-] [NHMe; SCH2 CH2 CH2 OH; H],12.5 µg/mL,1.56 µg/mL,,,10%,0%,20%
CN(C)CCNC(=O)c1c(CS(=O)(=O)CCO)[n+]([O-])c2ccccc2[n+]1[O-] [NHCH2 CH2 N(CH3)2; SO2 CH2 CH2 OH; H],50 µg/mL,100 µg/mL,,,,20%,0%
CNC(=O)c1c(CS(=O)(=O)CCO)[n+]([O-])c2ccccc2[n+]1[O-] [NHCH3; SO2 CH2 CH2 OH; H],0.781 µg/mL,1.56 µg/mL,,,40%,80%,100%
CN(C)C(=O)c1c(CS(=O)(=O)CCCCN2CCCCC2)[n+]([O-])c2ccccc2[n+]1[O-] [N(CH3)2; drawing 30; H],12.5 µg/mL,6.25 µg/mL,1/10,8/10,,,
NC(=O)c1c(CS(=O)(=O)CCO)[n+]([O-])c2ccccc2[n+]1[O-] [NH2; SO2 CH2 CH2 OH; H],12.5 µg/mL,6.25 µg/mL,,,80%,40%,0%
O=C(NCc1ccccc1)c1c(CS(=O)(=O)CCO)[n+]([O-])c2ccccc2[n+]1[O-] [NHCH2 .phi.; SO2 CH2 CH2 OH; H],200 µg/mL,0.781 µg/mL,,,20%,20%,20%
CC(O)CNC(=O)c1c(CS(=O)(=O)CCO)[n+]([O-])c2ccccc2[n+]1[O-] (centres unmarked) [NHCH2 CHOHCH3; SO2 CH2 CH2 OH; H],100 µg/mL,12.5 µg/mL,,,10%,0%,20%
CCNC(=O)c1c(CS(=O)(=O)CCCN2CCCCC2)[n+]([O-])c2ccccc2[n+]1[O-] [NHCH2 CH3; drawing 26; H],12.5 µg/mL,3.12 µg/mL,,,90%,100%,60%
O=C(NCCCCc1ccccc1)c1c(CS(=O)(=O)CCO)[n+]([O-])c2ccccc2[n+]1[O-] [NH(CH2)4 .phi.; SO2 CH2 CH2 OH; H],> 200 µg/mL,3.12 µg/mL,,,10%,10%,20%
NC(=O)c1c(CS(=O)(=O)CCCN2CCOCC2)[n+]([O-])c2ccccc2[n+]1[O-] [NH2; drawing 20; H],12.5 µg/mL,12.5 µg/mL,,,60%,100%,20%
CCCNC(=O)c1c(CS(=O)(=O)CCO)[n+]([O-])c2ccccc2[n+]1[O-] [NHPr; SO2 CH2 CH2 OH; H],3.12 µg/mL,3.12 µg/mL,,,70%,40%,20%
CNC(=O)c1c(CS(=O)(=O)CCCO)[n+]([O-])c2ccccc2[n+]1[O-] [NHMe; SO2 CH2 CH2 CH2 OH; H],12.5 µg/mL,3.12 µg/mL,,,30%,90%,70%
CCNC(=O)c1c(CSCCO)[n+]([O-])c2ccccc2[n+]1[O-] [NHCH2 CH3; SCH2 CH2 OH; H],6.25 µg/mL,3.12 µg/mL,,,20%,20%,40%
CNC(=O)c1c(CS(=O)(=O)CCCN(C)C)[n+]([O-])c2ccccc2[n+]1[O-] [NHCH3; SO2 (CH2)3 N(CH3)2; H],6.25 µg/mL,3.12 µg/mL,,,,100%,100%
CCN(CC)CCCS(=O)(=O)Cc1c(C(=O)N(C)C)[n+]([O-])c2ccccc2[n+]1[O-] [N(CH3)2; SO2 (CH2)3 N(CH2 CH3)2; H],25 µg/mL,6.25 µg/mL,,,10%,60%,0%
CCN(CC)CCCS(=O)(=O)Cc1c(C(=O)NC)[n+]([O-])c2ccccc2[n+]1[O-] [NHCH3; SO2 (CH2)3 N(CH2 CH3)2; H],25 µg/mL,12.5 µg/mL,,,0%,80%,40%
O=C(NCCCO)c1c(CSCCO)[n+]([O-])c2ccccc2[n+]1[O-] [NHCH2 CH2 CH2 OH; SCH2 CH2 OH; H],50 µg/mL,25 µg/mL,,,30%,10%,20%
COCCNC(=O)c1c(CS(=O)(=O)CCCN(C)C)[n+]([O-])c2ccccc2[n+]1[O-] [NHCH2 CH2 OCH3; SO2 (CH2)3 N(CH3)2; H],50 µg/mL,1.56 µg/mL,,,50%,100%,10%
